{
  "source": "patent US20170131285A1",
  "about": "“METHODS AND COMPOSITIONS FOR DIAGNOSING, MONITORING AND TREATING CANCER” (INSERM (Institut National de la Sante et de la Recherche …, priority 2014, published 2017)",
  "key": {"MSC2 cells": {"system": "MSC2 cells", "assay": "pSTAT3 western blot in MSC2 cells incubated with tumor-derived exosomes", "type": "cell-based", "experimental": "FIG. 4: A8 blocks the activation and proliferation of MSC2 cells. (A) IL-6 concentration was determined by ELISA in the supernatant of MSC2 cells incubated or not for 24 h with exosomes (from B16F10) in the presence or absence of A8. *, p<0.05, (n=3). (B) A representative image of a western blot showing the kinetics of STAT3 phosphorylation in MCS2 cells incubated or not with exosomes isolated from B16F10, CT26 or HCT116 cells together with a peptide control (TDE) or A8 (TDE/A8). 14-3-3 is used as a loading control. In the right panels, the amount of pSTAT3 was quantified by densitometric analysis. *, p<0.05, n=4.\nFive millions of MSC2 cells were incubated with or without exosomes isolated from B16F10, CT26, HCT116 or SW480 cells in the presence or absence of A8 during 4 h or 6 h. Cells were isolated, lysed and analysed for pSTAT3 by western blotting.\nMSC2 (2·10^6) or MDSC (2·10^6) were incubated alone or with exosomes (from B16F10, CT26, HCT116, SW480) in the absence or presence of A8 or A17 (16 μM) during 6 hours (RPMI 10% FBS, 5% of CO2 at 37° C.). Every 2 hours, […] cells were sampled and centrifugated 5 min at 300 g. Cells were lysed in lysis buffer (50 mM HEPES (pH 7.6), 150 mM NaCl, 5 mM EDTA, and 0.1% NP40 and anti-phosphatases, Roche). Then, pSTAT3 and STAT3 expression were analyzed by western blotting."}, "B16F10 tumors": {"system": "B16F10 tumors", "assay": "B16F10 melanoma tumor model in C57/BL6 mice", "type": "in vivo, mouse", "experimental": "FIG. 5: A8 anti-tumor effect in mice is associated to MDSC and an immune anti-tumor response. (A) Mice were sc injected with B16F10 cells (5×10^4). On day 4, when tumor size was about 0.9 mm^3, animals were treated every two days until the end of the experiment with A0 or A8 (3 mg/kg dissolved in PBS, i.p injection). On day 5, half the animals were treated with cisplatin as a single dose (CDDP, i.p injection, 5 mg/kg). At day 18, the percentage of Gr1^+ CD11b^+ cells in the spleen collected from the different groups of mice was analyzed by flow cytometry (6 animals per group). As a MDCS negative control (Ctl) we used animals with no tumor cells injected. Right panels, a representative immunoblot of pSTAT3 in the MDSC (Gr1^+ CD11b^+ cells) isolated from the spleen of control animals (A0/PBS) or A8 and CDDP-treated animals (A8/CDDP). 14-3-3 is used as a loading control. (B) Analysis of tumor growth in the animals described above. Tumor size was measured every two days (6 animals per group). The white symbols represent the tumors from animals treated with cisplatin. (C) HSP70-exosomes isolated from B16F10 cells treated or not with cisplatin (CDDP, 25 μM) were determined by flow cytometry. Data represent the percentage of MFI+/−SD (n=3); *, p<0.05. (D) Association curves of HSP70-exosomes present in tumor-bearing mice sera treated or not with cisplatin (5 mg/kg). For the biolayer interferometry, biotinylated A8 was immobilized on streptavidin sensor tips. Curves represent mean values of triplicate measurements for each concentration (for each curve, the blood of 5 mice per group was pooled).\nExponentially growing B16F10 were harvested and resuspended in an RPMI medium without FBS. In vivo studies were performed in wild-type C57/BL6 mice (Charles River). B16F10 cells (5·10^4) were injected s.c. into the right flank Tumor volumes were evaluated every 2 days. Mice were treated with a control peptide aptamer A0 (3 mg/kg) or the HSP70 aptamer A8 (3 mg/kg) and half mice were treated with cisplatin (CDDP, […]). The animals were treated according to the guidelines of the Ministère de la Recherche et de la Technologie, France. All experiments were approved by the Comité d'Ethique de l'Université de Bourgogne.\nMDSC cell isolation and analysis: Single-cell suspensions were prepared from spleens, and red cells were removed using ammonium chloride lysis buffer. Gr-1+ cells were isolated from spleens of different group of tumor-bearing mice or naive mice by labeling the cells with PE Cy7 Ab to Gr-1, then using magnetic PE Cy7 beads and LS MACS columns (Miltenyi Biotec). For extracellular staining of immune markers, single-cell suspensions were prepared. We incubated 1·10^6 freshly prepared cells with fluorochrome-coupled CD11b antibody (eBioscience). All events were acquired by a BD Bioscience LSR-II device and analyzed with FlowJo (Tree Star).\nAnimals were killed 18 days after cell injection. The site of tumor cell injection was resected and snap-frozen in liquid nitrogen. An immunohistochemical study of tumor-infiltrating inflammatory cells was performed on acetone-fixed 5 μm cryostat sections.\nNext, we tested whether A8 was also able to block the immunosuppressive effect of MDSC in an in vivo cancer model. We performed subcutaneous injection at day 0 of B16F10 cells or media as a control in C57/BL6 mice. When tumor size reached about 0.9 mm^3 ([…]), mice were treated i.p. with a control peptide aptamer (A0) or A8 every two days until the end of the experiment. When indicated, half of the animals received cisplatin (CDDP, […], i.p.) as a single dose. Tumor growth was measured every two days. After 18 days, we analyzed the percentage of MDSC present in mice spleen (6 animals per group) by FACS using the specific markers Gr1^+ and CD11b^+ (FIG. 5A). […]"}},
  "note": "Where no end group is shown, it is not given here.",
  "data": [
    {"sequence": "SPWPRPTY [Aptamer A8, SPWPRPTY]", "values": [
      {"measurement": "STAT3 phosphorylation (activation) in MSC2 induced by tumor-derived exosomes", "setting": "MSC2 cells; exosomes from CT26, B16F10, HCT116, SW480, 4 h and 6 h, aptamer 16 μM", "value": "inhibited the ability of tumor-derived exosomes to activate STAT3"},
      {"measurement": "MDSC activation (STAT3 phosphorylation in MSC2) in the absence of tumor-derived exosomes", "setting": "MSC2 cells; no exosomes", "value": "does not have a direct effect in MDSC activation"},
      {"measurement": "intra-tumor infiltration of immune cells (CD3+, CD11c+, CD11b+, F4/80+)", "setting": "B16F10 tumors; B16F10 model", "value": "intra-tumor infiltration of immune cells"},
      {"measurement": "anti-cancer properties of cisplatin", "setting": "B16F10 tumors; B16F10 model, A8 added to cisplatin", "value": "strong increase"},
      {"measurement": "percentage of MDSC (Gr1+ CD11b+) in spleen", "setting": "B16F10 tumors; B16F10 tumor-bearing C57/BL6 mice, day 18, A0 or A8 3 mg/kg i.p. every two days, cisplatin single i.p. dose, 6 animals per group", "value": "6+/−0.7%"},
      {"measurement": "activity of spleen MDSC measured by phosphorylated STAT3", "setting": "B16F10 tumors; after cisplatin treatment, immunoblot of Gr1+ CD11b+ cells", "value": "affected their activity"},
      {"measurement": "tumor growth / tumor progression", "setting": "B16F10 tumors; tumor-bearing mice", "value": "inhibits tumor progression"}
    ]}
  ]
}
